How the values were obtained:
[1] = tested on: sulfate reducing bacteria; experiment: Sulfate reducing bacteria viability (SRB/ml) after treatment; type: cell-based
Method: The test protocol was as follows: 100 mL serum bottles were filled with synthetic nutrient medium, then stoppered, capped, and autoclaved, and allowed to cool to at least 35° C. Using a 1 mL syringe with needle, the treatment was added at desired dosages to prepared serum bottles (triplicates of each dosage). No treatment was added for baseline controls. Nine baseline serum bottles were used.
Next, a 10^10 cells/ml concentration of the sulfate reducers was prepared (using autoclaved synthetic nutrient medium) inside an anaerobic chamber. Using a 1 ml syringe with needle, 0.1 ml of the prepared sulfate reducers culture was added to each serum bottle. The bottles were then incubated at the desired temperature for 48 hours.

[2] = tested on: sulfate reducing bacteria; experiment: Inhibition of hydrogen sulfide generation by sulfate reducers in serum bottles; type: cell-based; conditions: 48 hours incubation; for Sulfide Formation Level Sample A: replicate bottle A; for Sulfide Formation Level Sample B: replicate bottle B; for Sulfide Formation Level Sample C: replicate bottle C
Method: The test protocol was as follows: 100 mL serum bottles were filled with synthetic nutrient medium, then stoppered, capped, and autoclaved, and allowed to cool to at least 35° C. Using a 1 mL syringe with needle, the treatment was added at desired dosages to prepared serum bottles (triplicates of each dosage). No treatment was added for baseline controls. Nine baseline serum bottles were used. Next, a 10^10 cells/ml concentration of the sulfate reducers was prepared (using autoclaved synthetic nutrient medium) inside an anaerobic chamber. Using a 1 ml syringe with needle, 0.1 ml of the prepared sulfate reducers culture was added to each serum bottle. The bottles were then incubated at the desired temperature for 48 hours. The baseline dissolved sulfide levels were then measured to determine if the samples were ready for efficacy analysis. Using a 30 mL syringe with needle, 30 mL of sample was removed from each serum bottle. About 25 mL of the sample was added to a 30 mL bottle containing 0.125 mL zinc acetate solution, followed by adding 1 mL of 1N NaOH. The sulfide in the fixed sample was then measured. If the control sample sulfide levels were >10 ppm, then the whole series of test vials was evaluated for generated sulfide. The remaining 5 mL of sample in the syringe was used for a final pH determination.

CC[C@@]1([C@@H]2O[C@@H]([C@H]3O[C@@](O)(CO)[C@H](C)C[C@@H]3C)C[C@@H]2C)CC[C@H]([C@]2(C)CC[C@]3(C[C@H](O)[C@@H](C)[C@@H]([C@@H](C)[C@@H](OC)[C@H](C)C(=O)O)O3)O2)O1 [monensin, reference compound] was tested, and the SRB/ml ([1]; inhibitor dose conc. 25 ppm) was 1,000,000 SRB/ml, the SRB/ml ([1]; inhibitor dose conc. 50 ppm) was 100,000 SRB/ml and the SRB/ml ([1]; inhibitor dose conc. 100 ppm) was 10,000 SRB/ml. The “Sulfide Formation Level Sample A” value ([2]; inhibitor dose conc. 25 ppm) was 1+ (1+ = 0.1-1.0 ppm Sulfide), the “Sulfide Formation Level Sample B” value ([2]; inhibitor dose conc. 25 ppm) was 1+ (1+ = 0.1-1.0 ppm Sulfide) and the “Sulfide Formation Level Sample C” value ([2]; inhibitor dose conc. 25 ppm) was 0 (0 = <0.1 ppm Sulfide). For the same molecule, the “Sulfide Formation Level Sample A” value ([2]; inhibitor dose conc. 50 ppm) was 0 (0 = <0.1 ppm Sulfide), the “Sulfide Formation Level Sample B” value ([2]; inhibitor dose conc. 50 ppm) was 0 (0 = <0.1 ppm Sulfide) and the “Sulfide Formation Level Sample C” value ([2]; inhibitor dose conc. 50 ppm) was 0 (0 = <0.1 ppm Sulfide). The “Sulfide Formation Level Sample A” value ([2]; inhibitor dose conc. 100 ppm) was 0 (0 = <0.1 ppm Sulfide), the “Sulfide Formation Level Sample B” value ([2]; inhibitor dose conc. 100 ppm) was 0 (0 = <0.1 ppm Sulfide) and the “Sulfide Formation Level Sample C” value ([2]; inhibitor dose conc. 100 ppm) was 0 (0 = <0.1 ppm Sulfide).
In the case of Sc1nc2ccccc2s1 [2-mercaptobenzothiazole], the SRB/ml ([1]; inhibitor dose conc. 25 ppm) is reported as 10,000 SRB/ml, the SRB/ml ([1]; inhibitor dose conc. 50 ppm) is reported as 100,000 SRB/ml and the SRB/ml ([1]; inhibitor dose conc. 100 ppm) is reported as 10,000 SRB/ml. For the same molecule, the “Sulfide Formation Level Sample A” value ([2]; inhibitor dose conc. 25 ppm) was 0 (0 = <0.1 ppm Sulfide), the “Sulfide Formation Level Sample B” value ([2]; inhibitor dose conc. 25 ppm) was 0 (0 = <0.1 ppm Sulfide) and the “Sulfide Formation Level Sample C” value ([2]; inhibitor dose conc. 25 ppm) was 0 (0 = <0.1 ppm Sulfide). For the same molecule, the “Sulfide Formation Level Sample A” value ([2]; inhibitor dose conc. 50 ppm) was 0 (0 = <0.1 ppm Sulfide), the “Sulfide Formation Level Sample B” value ([2]; inhibitor dose conc. 50 ppm) was 0 (0 = <0.1 ppm Sulfide) and the “Sulfide Formation Level Sample C” value ([2]; inhibitor dose conc. 50 ppm) was 0 (0 = <0.1 ppm Sulfide). The “Sulfide Formation Level Sample A” value ([2]; inhibitor dose conc. 100 ppm) was 0 (0 = <0.1 ppm Sulfide), the “Sulfide Formation Level Sample B” value ([2]; inhibitor dose conc. 100 ppm) was 0 (0 = <0.1 ppm Sulfide) and the “Sulfide Formation Level Sample C” value ([2]; inhibitor dose conc. 100 ppm) was 0 (0 = <0.1 ppm Sulfide).
NCCO [monoethanolamine] was tested, and the SRB/ml ([1]; inhibitor dose conc. 25 ppm) was 100,000 SRB/ml, the SRB/ml ([1]; inhibitor dose conc. 50 ppm) was 100,000 SRB/ml and the SRB/ml ([1]; inhibitor dose conc. 100 ppm) was 100,000 SRB/ml. For the same molecule, the “Sulfide Formation Level Sample A” value ([2]; inhibitor dose conc. 25 ppm) was 1+ (1+ = 0.1-1.0 ppm Sulfide), the “Sulfide Formation Level Sample B” value ([2]; inhibitor dose conc. 25 ppm) was 1+ (1+ = 0.1-1.0 ppm Sulfide) and the “Sulfide Formation Level Sample C” value ([2]; inhibitor dose conc. 25 ppm) was 1+ (1+ = 0.1-1.0 ppm Sulfide). For the same molecule, the “Sulfide Formation Level Sample A” value ([2]; inhibitor dose conc. 50 ppm) was 1+ (1+ = 0.1-1.0 ppm Sulfide), the “Sulfide Formation Level Sample B” value ([2]; inhibitor dose conc. 50 ppm) was 1+ (1+ = 0.1-1.0 ppm Sulfide) and the “Sulfide Formation Level Sample C” value ([2]; inhibitor dose conc. 50 ppm) was 0 (0 = <0.1 ppm Sulfide). For the same molecule, the “Sulfide Formation Level Sample A” value ([2]; inhibitor dose conc. 100 ppm) was 0 (0 = <0.1 ppm Sulfide), the “Sulfide Formation Level Sample B” value ([2]; inhibitor dose conc. 100 ppm) was 0 (0 = <0.1 ppm Sulfide) and the “Sulfide Formation Level Sample C” value ([2]; inhibitor dose conc. 100 ppm) was 0 (0 = <0.1 ppm Sulfide).

From patent US20060073112A1, “Method of preventing hydrogen sulfide odor generation in an aqueous medium” (priority 2004, published 2006)
